Values joined by “and” are separate entries in the source; they are usually repeats but may differ in a detail not shown here. Identical values can stand only once. Toxic doses and inconclusive results are not listed.
System: L1210 leukemia ip in BDF1 mice, survival T/C
Assay: NCI In Vivo Anticancer Drug Screen. Data for tumor model L1210 Leukemia (intraperitoneal) in B6D2F1 (BDF1) mice
Conditions: endpoint: mean survival time, higher = longer survival
In short: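 Each compound was tested against a transplantable tumor grown in mice. The endpoint was survival, with treated animals benchmarked against vehicle controls as a simple ratio.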

[1] = dose: 100.0 mg/kg/injection, schedule: Q01DX001 (ip), vehicle: carboxymethylcellulose (CMC)
[2] = dose: 200.0 mg/kg/injection, schedule: Q01DX001 (ip), vehicle: carboxymethylcellulose (CMC)
[3] = dose: 400.0 mg/kg/injection, schedule: Q01DX001 (ip), vehicle: carboxymethylcellulose (CMC)
[4] = dose: 25.0 mg/kg/injection, schedule: Q01DX009 (ip), vehicle: Klucel (hydroxypropylcellulose) (HPC)
[5] = dose: 50.0 mg/kg/injection, schedule: Q01DX009 (ip), vehicle: Klucel (hydroxypropylcellulose) (HPC)
[6] = dose: 50.0 mg/kg/injection, schedule: Q04DX002 (ip), vehicle: Klucel (hydroxypropylcellulose) (HPC)
[7] = dose: 100.0 mg/kg/injection, schedule: Q01DX009 (ip), vehicle: Klucel (hydroxypropylcellulose) (HPC)
[8] = dose: 100.0 mg/kg/injection, schedule: Q04DX002 (ip), vehicle: Klucel (hydroxypropylcellulose) (HPC)
[9] = dose: 200.0 mg/kg/injection, schedule: Q01DX009 (ip), vehicle: Klucel (hydroxypropylcellulose) (HPC)
[10] = dose: 200.0 mg/kg/injection, schedule: Q04DX002 (ip), vehicle: Klucel (hydroxypropylcellulose) (HPC)
[11] = dose: 400.0 mg/kg/injection, schedule: Q01DX009 (ip), vehicle: Klucel (hydroxypropylcellulose) (HPC)
[12] = dose: 100.0 mg/kg/injection, schedule: Q04DX003 (ip), vehicle: Klucel (hydroxypropylcellulose) (HPC)
[13] = dose: 200.0 mg/kg/injection, schedule: Q04DX003 (ip), vehicle: Klucel (hydroxypropylcellulose) (HPC)
[14] = dose: 400.0 mg/kg/injection, schedule: Q04DX003 (ip), vehicle: Klucel (hydroxypropylcellulose) (HPC)
[15] = dose: 50.0 mg/kg/injection, schedule: Q01DX001 (ip), vehicle: saline
[16] = dose: 100.0 mg/kg/injection, schedule: Q01DX001 (ip), vehicle: saline
[17] = dose: 200.0 mg/kg/injection, schedule: Q01DX001 (ip), vehicle: saline
[18] = dose: 100.0 mg/kg/injection, schedule: Q04DX003 (ip), vehicle: saline with Tween-80
[19] = dose: 200.0 mg/kg/injection, schedule: Q04DX003 (ip), vehicle: saline with Tween-80
[20] = dose: 400.0 mg/kg/injection, schedule: Q04DX003 (ip), vehicle: saline with Tween-80
[21] = dose: 100.0 mg/kg/injection, schedule: Q04DX003 (ip), vehicle: saline
[22] = dose: 200.0 mg/kg/injection, schedule: Q04DX003 (ip), vehicle: saline
[23] = dose: 400.0 mg/kg/injection, schedule: Q01DX001 (ip), vehicle: saline

CN(CCO)/N=N/c1nc[nH]c1C(N)=O
T/C [1]: 107 % of control
T/C [2]: 113 % of control
T/C [3]: 107 % of control
T/C (dose: 400.0 mg/kg/injection, schedule: Q01DX009 (ip), vehicle: carboxymethylcellulose (CMC)): 169 % of control
T/C (dose: 800.0 mg/kg/injection, schedule: Q01DX009 (ip), vehicle: carboxymethylcellulose (CMC)): 92 % of control

O=C1C(=O)c2cc(Cl)ccc2-c2ccccc21
T/C (dose: 50.0 mg/kg/injection, schedule: Q01DX001 (ip), vehicle: carboxymethylcellulose (CMC)): 100 % of control
T/C [1]: 102 % of control
T/C [2]: 100 % of control
T/C [3]: 105 % of control

CN(C)N=Nc1cc2c(cc1O)CC[C@@H]1[C@@H]2CC[C@]2(C)C(=O)CC[C@@H]12
T/C [4]: 97 % of control
T/C [5]: 90 % of control
T/C [6]: 90 % of control
T/C [7]: 110 % of control
T/C [8]: 90 % of control
T/C [9]: 103 % of control
T/C [10]: 87 % of control
T/C [11]: 96 % of control

c1ccc([Si]([O][Sn]([c]2ccccc2)([c]2ccccc2)[c]2ccccc2)(c2ccccc2)c2ccccc2)cc1
T/C (dose: 25.6 mg/kg/injection, schedule: Q04DX002 (ip), vehicle: saline with Tween-80): 89 % of control
T/C (dose: 64.0 mg/kg/injection, schedule: Q04DX002 (ip), vehicle: saline with Tween-80): 93 % of control
T/C (dose: 160.0 mg/kg/injection, schedule: Q04DX002 (ip), vehicle: saline with Tween-80): 93 % of control
T/C (dose: 400.0 mg/kg/injection, schedule: Q04DX002 (ip), vehicle: saline with Tween-80): 89 % of control

O=C(O)CC(NCc1ccccc1)C1CCCCC1 (stereo not given)
T/C (dose: 100.0 mg/kg/injection, schedule: Q01DX001 (ip), vehicle: Klucel (hydroxypropylcellulose) (HPC)): 95 % of control
T/C (dose: 200.0 mg/kg/injection, schedule: Q01DX001 (ip), vehicle: Klucel (hydroxypropylcellulose) (HPC)): 101 % of control
T/C (dose: 400.0 mg/kg/injection, schedule: Q01DX001 (ip), vehicle: Klucel (hydroxypropylcellulose) (HPC)): 98 % of control

O=C1NC(=O)C2(CCN(CCCSc3ccc(F)cc3)CC2)C(=O)N1
T/C [12]: 98 % of control
T/C [13]: 98 % of control
T/C [14]: 94 % of control

Nc1nc(N)c2cc(N(CCO)CCO)ccc2n1
T/C [15]: 101 % of control
T/C [16]: 95 % of control
T/C [17]: 95 % of control

[Cl][Pd][Cl].[NH-]C1CCCCC1.[NH-]C1CCCCC1
T/C [6]: 94 % of control
T/C [8]: 102 % of control
T/C [10]: 87 % of control

COc1ccc(C2C=C(C)Oc3c2c(=O)oc2ccccc32)cc1OC (stereo not given)
T/C (dose: 6.25 mg/kg/injection, schedule: Q01DX009 (ip), vehicle: water): 96 % of control
T/C (dose: 12.5 mg/kg/injection, schedule: Q01DX009 (ip), vehicle: water): 98 % of control
T/C (dose: 25.0 mg/kg/injection, schedule: Q01DX009 (ip), vehicle: water): 100 % of control and 91 % of control
T/C (dose: 50.0 mg/kg/injection, schedule: Q01DX009 (ip), vehicle: water): 86 % of control

CN(C)c1ccc(/C=C/c2cc(N(C)C)nc3ccccc23)cc1
T/C (dose: 25.0 mg/kg/injection, schedule: Q01DX015 (ip), vehicle: carboxymethylcellulose (CMC)): 109 % of control
T/C (dose: 50.0 mg/kg/injection, schedule: Q01DX015 (ip), vehicle: carboxymethylcellulose (CMC)): 105 % of control
T/C (dose: 75.0 mg/kg/injection, schedule: Q01DX015 (ip), vehicle: carboxymethylcellulose (CMC)): 101 % of control

CCCCCCCCCCC/C=N/NC(=O)c1ccc[n+](C)c1
T/C (dose: 50.0 mg/kg/injection, schedule: Q01DX009 (ip), vehicle: saline): 108 % of control
T/C (dose: 100.0 mg/kg/injection, schedule: Q01DX009 (ip), vehicle: saline): 108 % of control
T/C (dose: 200.0 mg/kg/injection, schedule: Q01DX009 (ip), vehicle: saline): 110 % of control

CCC(C)C(C(=O)O)c1ccccc1 (stereo not given)
T/C [18]: 100 % of control
T/C [19]: 98 % of control
T/C [20]: 94 % of control

Cc1c(C(=O)O)nnn1/C=C/c1ccccc1
T/C (dose: 100.0 mg/kg/injection, schedule: Q04DX003 (ip), vehicle: acetone): 103 % of control
T/C (dose: 200.0 mg/kg/injection, schedule: Q04DX003 (ip), vehicle: acetone): 87 % of control

CC1(C)SC2C(NC(=O)Cc3ccccc3)C(=O)N2C1C(=O)O (stereo not given)
T/C [15]: 104 % of control
T/C [16]: 98 % of control and 107 % of control
T/C [21]: 101 % of control
T/C [17]: 96 % of control and 107 % of control
T/C [22]: 104 % of control
T/C [23]: 98 % of control
T/C (dose: 400.0 mg/kg/injection, schedule: Q04DX003 (ip), vehicle: saline): 104 % of control

CSc1nc(C)c(C)c(=O)[nH]1
T/C [16]: 104 % of control
T/C [17]: 116 % of control
T/C [23]: 124 % of control

CCCCCCCCCCCCCCCCOc1ccc(C=Nc2ccc(C)cc2)cc1
T/C [12]: 103 % of control
T/C [13]: 97 % of control
T/C [14]: 104 % of control

CCOC(=O)/C=C\n1c(=O)cc(C)c2ccccc21
T/C [7]: 98 % of control
T/C [12]: 89 % of control
T/C [9]: 108 % of control
T/C [13]: 92 % of control
T/C [11]: 108 % of control
T/C [14]: 87 % of control

Clc1cccc(N=Cc2ccc3c(c2)OCO3)c1Cl
T/C [7]: 97 % of control
T/C [9]: 94 % of control
T/C [11]: 100 % of control

Nc1nc(N)c(N=Nc2ccc(S(=O)(=O)Nc3ccccn3)cc2)c(N)n1
T/C [16]: 101 % of control
T/C [17]: 95 % of control

COc1cc(Cc2cnc(NC(C)=O)nc2NC(C)=O)cc(OC)c1OC
T/C (dose: 12.5 mg/kg/injection, schedule: Q01DX009 (ip), vehicle: saline with Tween-80): 92 % of control
T/C (dose: 12.5 mg/kg/injection, schedule: Q04DX003 (ip), vehicle: saline with Tween-80): 101 % of control
T/C (dose: 25.0 mg/kg/injection, schedule: Q01DX009 (ip), vehicle: saline with Tween-80): 95 % of control
T/C (dose: 25.0 mg/kg/injection, schedule: Q04DX003 (ip), vehicle: saline with Tween-80): 101 % of control
T/C (dose: 50.0 mg/kg/injection, schedule: Q01DX009 (ip), vehicle: saline with Tween-80): 88 % of control
T/C (dose: 50.0 mg/kg/injection, schedule: Q04DX003 (ip), vehicle: saline with Tween-80): 95 % of control

CCCCCCCCCCCC#N
T/C (dose: 100.0 mg/kg/injection, schedule: Q01DX009 (ip), vehicle: saline with Tween-80): 107 % of control
T/C (dose: 200.0 mg/kg/injection, schedule: Q01DX009 (ip), vehicle: saline with Tween-80): 96 % of control
T/C (dose: 400.0 mg/kg/injection, schedule: Q01DX009 (ip), vehicle: saline with Tween-80): 90 % of control

O[C@H]1[C@H]2c3cc4c(cc3CN3CCC(=C[C@@H]1O)[C@H]23)OCO4
T/C (dose: 50.0 mg/kg/injection, schedule: Q01DX Z (ip), vehicle: steriod suspending solution): 120 % of control
T/C (dose: 75.0 mg/kg/injection, schedule: Q01DX Z (ip), vehicle: steriod suspending solution): 96 % of control and 105 % of control
T/C (dose: 100.0 mg/kg/injection, schedule: Q01DX Z (ip), vehicle: steriod suspending solution): 114 % of control

COC1OC(COCc2ccccc2)C(OCc2ccccc2)C(OC)C1O (stereo not given)
T/C [18]: 96 % of control
T/C [19]: 94 % of control
T/C [20]: 104 % of control

Cc1ccc(P(=O)(O)O)cc1C
T/C (dose: 37.5 mg/kg/injection, schedule: Q01DX009 (ip), vehicle: saline): 101 % of control
T/C [5]: 101 % of control
T/C (dose: 75.0 mg/kg/injection, schedule: Q01DX009 (ip), vehicle: saline): 89 % of control
T/C [7]: 95 % of control
T/C [21]: 100 % of control
T/C (dose: 150.0 mg/kg/injection, schedule: Q01DX009 (ip), vehicle: saline): 87 % of control
T/C [9]: 101 % of control
T/C [22]: 88 % of control

CCOc1c(OC)cc(/C=C/C(=O)NC2CC2)cc1OC
T/C [4]: 88 % of control
T/C [7]: 101 % of control and 88 % of control

CSc1ccc(OC(=O)Oc2ccc(SC)c(C)c2)cc1C
T/C [1]: 92 % of control
T/C [2]: 92 % of control
T/C [3]: 97 % of control

Reference: PubChem BioAssay AID248 (DTP/NCI, 2004)
